Source: patent publication US8247211B2, “Glycopeptide antibiotics” (American Cyanamid Company, priority 2001, dated 2012)
≈ marks a conversion by molar mass, not a printed value. Numbered stars: 1 amine (or outer) side, 2 acyl side, 3 side chain; on linkers, the order of the positions; unused ones are H or OH. Square brackets hold non-standard residues; d marks the D form. Peptide text beside a SMILES is read from it. ξ: configuration not given here. X1 = N=C1NCC(C(O)C(N[*:1])C(=O)[*:2])N1C1OC(CO)C(O)C(O)C1O; ξEnduracididine(βξ-OH,4'ξ) = N=C1NCC(C(O)C(N)C(=O)O)N1; Cha = N[CH](CC1CCCCC1)C(=O)O

Legend:
[1] = Anatomic pathology (heart and kidney histopathology) in mice; assay type: in vivo, CD-1 mice; conditions: 20 mg/kg intravenously daily for 9 days, microscopic histopathology on day 10
Procedure, shortened: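 Juvenile CD-1 mice (20 days old; 5 vehicle, 5 treated) received glycopeptide antibiotic 20 mg/kg i.v. daily for 9 days. Necropsied tissues formalin-fixed, paraffin-embedded, H&E stained and examined microscopically; findings graded slight to severe versus controls.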

[2] = tested on: Staphylococcus aureus-SMITH (GC 4543); test: Acute lethal infection in mice (ED50); assay type: in vivo; conditions: female CD-1 mice, intraperitoneal challenge, intravenous dose 30 min. after infection, 7 day survival ratios
Procedure, shortened: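 Female CD-1 mice (20 ± 1-2 g) were infected intraperitoneally with enough bacteria, suspended in Trypticase Soy Broth or hog gastric mucin, to kill untreated controls within 24-48 hr. Compound in saline or 5% dextrose was given intravenously 30 min after infection. ED50 came from pooled 7-day survival over 3 tests.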

Enterococcus sp. = test: In vitro antibacterial evaluation: minimum inhibitory concentration (MIC), broth dilution method; assay type: cell-based; conditions: broth dilution, 18 hours at 35° C.
Procedure, shortened: (§1)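 MIC by broth dilution in Mueller-Hinton II medium following NCCLS M7-A2. Inoculum was 5×10^5 CFU/mL and antibiotic was tested over 64-0.06 μg/mL. Gram-positive panel included clinical isolates resistant to methicillin, penicillin and/or vancomycin.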

Staphylococcus sp. = test: as above; assay type: cell-based; conditions: broth dilution, 18 hours at 35° C.
Procedure, shortened: as §1

Streptococcus sp. = test: as above; assay type: cell-based; conditions: broth dilution, 18 hours at 35° C.
Procedure, shortened: as §1

Escherichia coli = test: as above; assay type: cell-based; conditions: broth dilution, 18 hours at 35° C.

With `N=C1NCC(C(O)C2NC(=O)C(CC3CCCCC3)NC(=O)C(CC3CCCCC3)NC(=O)CNC(=O)C(CO)NC(=O)C(C(O)C3CNC(=N)N3C3OC(CO)C(O)C(O)C3O)NC2=O)N1` (stereo not drawn) [Example 52, Cyclo[3-cyclohexylalanyl-3-cyclohexylalanyl-3-(2-iminoimidazolidin-4-yl)seryl-3-(3-hexopyranosyl-2-iminoimidazolidin-4-yl)serylserylglycyl]] (cyclo(G[Cha][Cha][ξEnduracididine(βξ-OH,4'ξ)][X1]S); configuration not given here) the “Anatomical Pathology (Day 10), Heart” value [1] was 0, the “Anatomical Pathology (Day 10), Kidney” value [1] was “+++” and the “median effective dose (ED50), Staphylococcus aureus-SMITH (GC 4543)” value [2] was >4. The “MIC Enterococcus avium (GC 4558)” value (Enterococcus sp.; Enterococcus avium (GC 4558)) was 32 µg/mL (≈ 33.6 µM), the “MIC Enterococcus faecalis (ATCC 29212)” value (Enterococcus sp.; Enterococcus faecalis (ATCC 29212)) was 64 µg/mL (≈ 67.2 µM) and the “MIC Enterococcus faecalis (GC 2242)” value (Enterococcus sp.; Enterococcus faecalis (GC 2242)) was 32 µg/mL (≈ 33.6 µM). The “MIC Enterococcus faecalis (GC 2691)” value (Enterococcus sp.; Enterococcus faecalis (GC 2691)) was 32 µg/mL (≈ 33.6 µM), the “MIC Enterococcus faecalis (GC 3059)” value (Enterococcus sp.; Enterococcus faecalis (GC 3059)) was 32 µg/mL (≈ 33.6 µM) and the “MIC Enterococcus faecalis (GC 4552)” value (Enterococcus sp.; Enterococcus faecalis (GC 4552)) was 32 µg/mL (≈ 33.6 µM). The “MIC Enterococcus faecalis (GC 4553)” value (Enterococcus sp.; Enterococcus faecalis (GC 4553)) was 16 µg/mL (≈ 16.8 µM), the “MIC Enterococcus faecalis (GC 4554)” value (Enterococcus sp.; Enterococcus faecalis (GC 4554)) was 64 µg/mL (≈ 67.2 µM) and the “MIC Enterococcus faecalis (GC 6189)” value (Enterococcus sp.; Enterococcus faecalis (GC 6189)) was 32 µg/mL (≈ 33.6 µM). The “MIC Enterococcus faecium (GC 2243)” value (Enterococcus sp.; Enterococcus faecium (GC 2243)) was 16 µg/mL (≈ 16.8 µM), the “MIC Enterococcus faecium (GC 4556)” value (Enterococcus sp.; Enterococcus faecium (GC 4556)) was 32 µg/mL (≈ 33.6 µM) and the “MIC Enterococcus faecium (GC 4557)” value (Enterococcus sp.; Enterococcus faecium (GC 4557)) was 8 µg/mL (≈ 8.39 µM). For the same compound, the “MIC Enterococcus avium (GC 4558)” value (Enterococcus sp.) was 32 µg/mL (≈ 33.6 µM), the “MIC Enterococcus faecalis (ATCC 29212)” value (Enterococcus sp.) was 64 µg/mL (≈ 67.2 µM) and the “MIC Enterococcus faecalis (GC 2242)” value (Enterococcus sp.) was 32 µg/mL (≈ 33.6 µM). For the same compound, the “MIC Enterococcus faecalis (GC 2691)” value (Enterococcus sp.) was 32 µg/mL (≈ 33.6 µM), the “MIC Enterococcus faecalis (GC 3059)” value (Enterococcus sp.) was 32 µg/mL (≈ 33.6 µM) and the “MIC Enterococcus faecalis (GC 4552)” value (Enterococcus sp.) was 32 µg/mL (≈ 33.6 µM). For the same compound, the “MIC Enterococcus faecalis (GC 4553)” value (Enterococcus sp.) was 16 µg/mL (≈ 16.8 µM), the “MIC Enterococcus faecalis (GC 4554)” value (Enterococcus sp.) was 64 µg/mL (≈ 67.2 µM) and the “MIC Enterococcus faecalis (GC 6189)” value (Enterococcus sp.) was 32 µg/mL (≈ 33.6 µM). The “MIC Enterococcus faecium (GC 2243)” value (Enterococcus sp.) was 16 µg/mL (≈ 16.8 µM), the “MIC Enterococcus faecium (GC 4556)” value (Enterococcus sp.) was 32 µg/mL (≈ 33.6 µM) and the “MIC Enterococcus faecium (GC 4557)” value (Enterococcus sp.) was 8 µg/mL (≈ 8.39 µM). The “MIC Coagulase Negative Staphylococcus (GC 4547)” value (Staphylococcus sp.) was 8 µg/mL (≈ 8.39 µM), the “MIC Coagulase Negative Staphylococcus (GC 4548)” value (Staphylococcus sp.) was 8 µg/mL (≈ 8.39 µM) and the “MIC Coagulase Negative Staphylococcus (GC 4549)” value (Staphylococcus sp.) was 4 µg/mL (≈ 4.2 µM). The “MIC Coagulase Negative Staphylococcus (GC 4551)” value (Staphylococcus sp.) was 8 µg/mL (≈ 8.39 µM), the “MIC Staphylococcus aureus SMITH (GC 4543)” value (Staphylococcus sp.) was 16 µg/mL (≈ 16.8 µM) and the “MIC Staphylococcus haemolyticus (GC 4546)” value (Staphylococcus sp.) was 4 µg/mL (≈ 4.2 µM). For the same compound, the “MIC Staphylococcus aureus-SMITH (GC 4543)” value (Staphylococcus sp.; strain SMITH GC 4543) was 16 µg/mL (≈ 16.8 µM), the “MIC Streptococcus agalactiae (GC 4564)” value (Streptococcus sp.; Streptococcus agalactiae (GC 4564)) was 8 µg/mL (≈ 8.39 µM) and the “MIC Streptococcus pneumoniae (ATCC 6301)” value (Streptococcus sp.; Streptococcus pneumoniae (ATCC 6301)) was 8 µg/mL (≈ 8.39 µM). The “MIC Streptococcus pneumoniae (GC 1894)” value (Streptococcus sp.; Streptococcus pneumoniae (GC 1894)) was 8 µg/mL (≈ 8.39 µM), the “MIC Streptococcus pneumoniae (GC 4565)” value (Streptococcus sp.; Streptococcus pneumoniae (GC 4565)) was 16 µg/mL (≈ 16.8 µM) and the “MIC Streptococcus pyogenes (GC 4563)” value (Streptococcus sp.; Streptococcus pyogenes (GC 4563)) was 8 µg/mL (≈ 8.39 µM). For the same compound, the “MIC Streptococcus agalactiae (GC 4564)” value (Streptococcus sp.) was 8 µg/mL (≈ 8.39 µM), the “MIC Streptococcus pneumoniae (ATCC 6301)” value (Streptococcus sp.) was 8 µg/mL (≈ 8.39 µM) and the “MIC Streptococcus pneumoniae (GC 1894)” value (Streptococcus sp.) was 8 µg/mL (≈ 8.39 µM). For the same compound, the “MIC Streptococcus pneumoniae (GC 4565)” value (Streptococcus sp.) was 16 µg/mL (≈ 16.8 µM), the “MIC Streptococcus pyogenes (GC 4563)” value (Streptococcus sp.) was 8 µg/mL (≈ 8.39 µM) and the “MIC Escherichia coli (ATCC 25922)” value (Escherichia coli) was 64 µg/mL (≈ 67.2 µM). The “MIC Escherichia coli (GC 4559)” value (Escherichia coli) was 64 µg/mL (≈ 67.2 µM) and the “MIC Escherichia coli (GC 4560)” value (Escherichia coli) was 16 µg/mL (≈ 16.8 µM).
